Experiments:
[1] = test system: experimentally obese rats; experiment: Tests in experimentally obese rats (lipogenic diet for fifteen days); type: in vivo, Wistar rats
Experimental: In these tests, male Wistar rats aged approximately two months were administered a lipogenic diet containing 50% glucose, 20% casein, 4% cellulose, 1% hazel nut oil, 18% starch, 2% vitamin mixture, and 5% salt mixture. The diet was administered for fifteen days consecutively to different groups of rats, one of which served as a control group, whereas the remaining groups were administered daily, per 100 g of diet, 2 g of propionyl L-carnitine or 1 g of chitosan, or the two compounds in combination at the same doses.
Another group was also administered acetyl L-carnitine (2 g/100 g diet) and butyryl L-carnitine (0.5 g/100 g diet) in addition to propionyl L-carnitine and chitosan.
At the end of the fifteenth day since the beginning of the diet, feed consumption and increase in body weight were calculated for each group of rats.

[2] = test system: male Wistar rats on atherogenic diet; experiment: Experimental atherosclerosis tests (atherogenic diet for six weeks); type: in vivo; conditions: 100 mg/kg of each component
Experimental: D2 200 mUST/g diet was administered for six weeks consecutively to different groups of male Wistar rats.
While one group of rats served as a control group, the other groups were administered chitosan (100 mg/kg) or propionyl L-carnitine (100 mg/kg) or chitosan (100 mg/kg) plus propionyl L-carnitine (100 mg/kg).
Another group of animals was administered acetyl L-carnitine (100 mg/kg) and butyryl L-carnitine (100 mg/kg) in addition to chitosan and propionyl L-carnitine.

[3] = test system: experimentally hypercholesterolaemic rabbits; experiment: Tests in experimentally hypercholesterolaemic rabbits (plasma lipoproteins); type: in vivo, New Zealand rabbits
Experimental: Another type of experiment was conducted in New Zealand rabbits kept on a hypercholesterolaemic diet for forty days and treated with alkanoyl L-carnitine, chitosan or with the two types of compounds in combination. In these tests, 0.5% by weight of cholesterol was added to the normal diet of the rabbits consisting of 150 g/day and containing 2% fats, 20% fibres and 11% ashes.
While one group of animals was used as a control group, the remaining groups were treated for six days with propionyl L-carnitine (2 g/100 g diet), chitosan (1 g/100 g diet), or propionyl L-carnitine+acetyl L-carnitine+butyryl L-carnitine (1 g+1 g+1 g/100 g diet) or with chitosan plus propionyl L-carnitine or chitosan plus the alkanoyl carnitine complex at the doses indicated above.
At the end of the fortieth day of treatment blood samples were taken from the ear vein from all animals and the plasma was used to calculate lipoprotein content in the various fractions (VLDL, LDL, HDL) after ultracentrifuging according to the method described by Noble (Noble R. P., J. Lipid Res., 9:693, 1968).

[4] = Day 40 of 0.5% cholesterol diet

## CCC(=O)O[C@H](CC(=O)[O-])C[N+](C)(C)C [Propionyl L-carnitine, propionyl L-carnitine]
[1]; before treatment, lipogenic diet, per 100 g diet: propionyl L-carnitine 2 g, chitosan 1 g, acetyl L-carnitine 2 g, butyryl L-carnitine 0.5 g
  Mean daily feed consumption (g)/animal, before treatment: 19.8 ± 0.71 g
[1]; end of fifteenth day of lipogenic diet, same doses in diet
  Mean body growth, final weight increase: 60.8 ± 5.2
[1]; end of fifteenth day, lipogenic diet, per 100 g diet: propionyl L-carnitine 2 g, chitosan 1 g, acetyl L-carnitine 2 g, butyryl L-carnitine 0.5 g
  Mean daily feed consumption (g)/animal, at the end of treatment: 18.9 ± 0.50 g
[2]
  Protective effect against atherosclerotic lesions induced by the atherogenic diet: substantial protective effect
[3]; Day 0
  Plasma lipoprotein concentration HDL: 24.2 ± 2.4 mg/dL
  Plasma lipoprotein concentration LDL: 9.8 ± 1.9 mg/dL
  Plasma lipoprotein concentration VLDL: 1.4 ± 0.9 mg/dL
[3]; [4]
  Plasma lipoprotein concentration HDL: 26.5 ± 10.4 mg/dL
  Plasma lipoprotein concentration LDL: 322 ± 31.4 mg/dL
  Plasma lipoprotein concentration VLDL: 832 ± 105 mg/dL
[3]; fortieth day, hypercholesterolaemic diet
  Increase in VLDL compared with control animals (in words): much less significant

Source: patent US8198260B2, “Composition for the prevention and/or treatment of disorders due to abnormal lipid metabolism, comprising propionyl L-carnitine and chitosan” (Sigma-Tau Industrie Farmaceutiche Riunite SpA, priority 1999, dated 2012)
